Each structure is given as a SMILES string. Structures can show the parent of a compound that is named as a salt.

The term IC50 denotes the midpoint of a concentration-inhibition curve.

The first test has as its system ITK mediated IL-2 release in Jurkat cells. The test can be described thus: ITK IL-2 release assay in CD3/CD28-stimulated Jurkat cells. Type of test: cell-based. The following applies: Homo sapiens, CD3/CD28 Dynabeads stimulation, overnight, read-out: IL-2 Production Inhibition IC50. On the procedure: This assay was based on the ability of a compound to inhibit ITK mediated IL-2 release. Jurkat cells were placed in wells of a 96-well plate at 500,000 per well in 120 μL medium (same as above). Compounds were added as 15 μL per well of 10× working stock solutions in medium with 1% DMSO (or medium with 1% DMSO for Controls) and placed in a 37° C. incubator for 2 hours. Stimulation used CD3/CD28 Dynabeads to activate the T cell receptor and mimic antigen-presenting cells. Beads were added at a ratio of 1 bead per cell, in 15 μL medium (or medium alone for unstimulated Control). After overnight incubation, the plates were centrifuged at 290×g for 5 min, then 100 μL per well of supernatant medium removed for IL-2 cytokine assay. To determine cell viability, to the remaining well Contents 50 μL of CellTiter-Glo reagent was added and luminescence determined. The IL-2 cytokine assay utilized an electochemiluminescence-based ELISA.
Consider `C=CC(=O)N1CC(Nc2cc(-c3cncc(NC)n3)c[nH]c2=O)C1` [Example 11, 3-((1-acryloylazetidin-3-yl)amino)-5-(6-(methylamino)pyrazin-2-yl) pyridin-2(1H)-one], for which the IC50 was at most 1000 nM.

On to `C=CC(=O)N1CC(Nc2cc(-c3ccnc(NC)c3)c[nH]c2=O)C1` [Example 9, 5-((1-acryloylazetidin-3-yl)amino)-2′-(methylamino)-[3,4′-bipyridin]-6(1H)-one], for which the half-inhibitory concentration (IC50) is at most 1000 nM.

In the case of `C=CC(=O)N1CC(Nc2cc(-c3ccnc(NC)n3)c[nH]c2=O)C1` [Example 10, 3-((1-acryloylazetidin-3-yl)amino)-5-(2-(methylamino)pyrimidin-4-yl)pyridin-2(1H)-one], the concentration for half-maximal inhibition (IC50) was at most 1000 nM.

Another test deals with T1, ITK (Homo sapiens, UniProt Q08881).
T1 sequence (Q08881 1-620): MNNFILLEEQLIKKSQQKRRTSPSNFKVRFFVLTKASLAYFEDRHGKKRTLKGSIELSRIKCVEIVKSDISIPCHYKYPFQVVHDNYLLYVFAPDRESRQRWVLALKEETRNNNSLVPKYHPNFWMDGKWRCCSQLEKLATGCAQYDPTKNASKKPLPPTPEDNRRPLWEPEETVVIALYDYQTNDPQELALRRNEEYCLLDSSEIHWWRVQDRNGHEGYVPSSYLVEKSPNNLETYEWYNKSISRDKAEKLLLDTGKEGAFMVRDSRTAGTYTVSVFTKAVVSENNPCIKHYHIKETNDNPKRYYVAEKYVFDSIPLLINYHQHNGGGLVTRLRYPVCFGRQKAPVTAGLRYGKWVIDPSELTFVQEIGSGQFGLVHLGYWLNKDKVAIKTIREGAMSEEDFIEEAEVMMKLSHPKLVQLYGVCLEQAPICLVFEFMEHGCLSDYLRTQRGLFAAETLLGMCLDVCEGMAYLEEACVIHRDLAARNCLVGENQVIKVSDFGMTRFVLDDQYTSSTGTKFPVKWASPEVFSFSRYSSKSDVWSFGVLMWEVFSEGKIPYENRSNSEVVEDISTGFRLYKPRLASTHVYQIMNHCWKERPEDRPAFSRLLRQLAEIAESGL
Put plainly: ITK inhibitor binding potency (LanthaScreen TR-FRET competitive binding assay). The note with it: pre-incubation condition not stated; read-out: ITK Inhibition IC50. The source says: The ability of candidate compounds to interact with ITK is quantitated by a competitive binding assay using the LanthaScreen technology developed by Life Technologies. This assay is based on the binding of a proprietary, Alexa Fluor® 647-labeled, ATP-competitive kinase inhibitor (kinase tracer-236) to the ITK expression construct in the presence of a Europium-conjugated antibody, resulting in a FRET (fluorescence resonance energy transfer) signal. Displacement of the kinase tracer by compound results in a lower emission ratio upon excitation of the Europium chelate. Candidate compounds are designed as potential irreversible inhibitors of ITK, capable of ligating to an active site cysteine residue resulting in time dependent covalent binding. The time dependent nature of irreversible inhibition is investigated by performing the binding assay with and without a pre-incubation of compound and ITK. […] The inhibitory potency of candidate compounds is measured in 20 mM HEPES pH 7.5, 10 mM MgCl2, 0.01% BSA, 0.0005% Tween-20, and 2% DMSO in the presence of 10 nM ITK, 2 nM Eu-anti-GST antibody, and 50 nM kinase tracer-236 using a 384-well plate format. Background signal is defined in the absence of ITK and uninhibited signal is defined in the presence of vehicle (2% DMSO) alone. Compounds were evaluated in an 11-point dose-response ranging from 20 uM to 0.34 nM. The binding assays are performed under two preincubation Conditions to evaluate time dependence of inhibition. For the pre-incubation assay, ITK and Eu-anti-GST antibody are pre-incubated with compound or vehicle for two hours prior to the addition of kinase tracer. The non-preincubated assay is run under Conditions where ITK and Eu-anti-GST antibody are added to a mixture of compound and kinase tracer. IC50 values of compounds are determined using a 4 parameter logistical fit of emission ratio as a function of the concentration of compound.
A general note: TR-FRET usually uses a lanthanide donor and a delayed reading to cut background.
For `CNc1cc(-c2c[nH]c(=O)c(NC3CN(C(=O)/C=C/CCOc4ccccc4)C3)c2)ccn1` [Example 20, (E)-2′-(Methylamino)-5-((1-(5-phenoxypent-2-enoyl)azetidin-3-yl)amino)-[3,4′-bipyridin]-6(1H)-one], the half-inhibitory concentration (IC50) was at most 1000 nM.

Take `C=CC(=O)N1CC(Nc2cc(-c3cncc(NC)n3)c[nH]c2=O)C1` [Example 11, 3-((1-acryloylazetidin-3-yl)amino)-5-(6-(methylamino)pyrazin-2-yl) pyridin-2(1H)-one]: the concentration for half-maximal inhibition (IC50) was at most 1000 nM.

Consider `C=CC(=O)N1CC[C@@H](Nc2cc(-c3ccncc3)c[nH]c2=O)C1` [Example 3, (R)-5-((1-Acryloylpyrrolidin-3-yl)amino)-[3,4′-bipyridin]-6(1H)-one], for which the half-inhibitory concentration (IC50) was over 1000 nM.

Turning to `C=CC(=O)N1CC(Nc2cc(-c3ccncc3)c[nH]c2=O)C1` [Example 5, 5-((1-Acryloylazetidin-3-yl)amino)-[3,4′-bipyridin]-6(1H)-one], the half-inhibitory concentration (IC50) was at most 1000 nM.

Take `CNC/C=C/C(=O)N1CC(Nc2cc(-c3ccncc3)c[nH]c2=O)C1` [Example 13, (E)-5-((1-(4-(methylamino)but-2-enoyl)azetidin-3-yl)amino)-[3,4′-bipyridin]-6(1H)-one]: the half-inhibitory concentration (IC50) was at most 1000 nM.

With `Cc1cc(NC(=O)c2cc(-c3c[nH]c(=O)c(NC4CN(C(=O)CCl)C4)c3)ccn2)ccc1C(C)C` [Example 17, 5-((1-(2-Chloroacetyl)azetidin-3-yl)amino)-N-(4-isopropyl-3-methylphenyl)-6-oxo-1,6-dihydro-[3,4′-bipyridine]-2′-carboxamide formate], the IC50 was over 1000 nM.

With `C=CC(=O)N1CC(Nc2cc(-c3ccnc(NC)c3)c[nH]c2=O)C1` [Example 9, 5-((1-acryloylazetidin-3-yl)amino)-2′-(methylamino)-[3,4′-bipyridin]-6(1H)-one], the IC50 was at most 1000 nM.

Take `CNc1cc(-c2c[nH]c(=O)c(NC3CN(C(=O)/C=C/c4ccccc4)C3)c2)ccn1` [Example 14, (E)-5-((1-Cinnamoylazetidin-3-yl)amino)-2′-(methylamino)-[3,4′-bipyridin]-6(1H)-one]: the 50% inhibitory concentration (IC50) was over 1000 nM.

As for `O=C(CCl)N1CCC[C@@H](Nc2cc(-c3ccncc3)c[nH]c2=O)C1` [Example 1, (R)-5-((1-(2-Chloroacetyl)piperidin-3-yl)amino)-[3,4′-bipyridin]-6(1H)-one], the IC50 was at most 1000 nM.

As to `C=CC(=O)N1CC(Nc2cc(-c3ccnc(NC)n3)c[nH]c2=O)C1` [Example 10, 3-((1-acryloylazetidin-3-yl)amino)-5-(2-(methylamino)pyrimidin-4-yl)pyridin-2(1H)-one], the IC50 was at most 1000 nM.

Take `C/C=C/C(=O)N1CC(Nc2cc(-c3ccncc3)c[nH]c2=O)C1` [Example 6, (E)-5-((1-(But-2-enoyl)azetidin-3-yl)amino)-[3,4′-bipyridin]-6(1H)-one]: the IC50 is over 1000 nM.

For the compound `C=CC(=O)N1CC(Nc2cc(-c3ccnc(C(=O)Nc4ccc(C(C)C)c(C)c4)c3)c[nH]c2=O)C1` [Example 16, 5-((1-Acryloylazetidin-3-yl)amino)-N-(4-isopropyl-3-methylphenyl)-6-oxo-1,6-dihydro-[3,4′-bipyridine]-2′-carboxamide hydrochloride], the IC50 is at most 1000 nM.

`CNc1cc(-c2c[nH]c(=O)c(NC3CN(C(=O)/C=C/CN(C)C)C3)c2)ccn1` [Example 19, (E)-5-((1-(4-(Dimethylamino)but-2-enoyl)azetidin-3-yl)amino)-2′-(methylamino)-[3,4′-bipyridin]-6(1H)-one]: the half-maximal inhibitory concentration (IC50) was at most 1000 nM.

For `CNC(=O)/C=C/C(=O)N1CC(Nc2cc(-c3ccncc3)c[nH]c2=O)C1` [Example 12, (E)-N-methyl-4-oxo-4-(3-((6-oxo-1,6-dihydro-[3,4′-bipyridin]-5-yl)amino)azetidin-l-yl)but-2-enamide], the IC50 was over 1000 nM.

For the compound `CC/C=C/C(=O)N1CC(Nc2cc(-c3ccnc(NC)c3)c[nH]c2=O)C1` [Example 18, (E)-2′-(Methylamino)-5-((1-(pent-2-enoyl)azetidin-3-yl)amino)-[3,4′-bipyridin]-6(1H)-one], the concentration for half-maximal inhibition (IC50) is at most 1000 nM.

On to `O=C(CCl)N1CC(Nc2cc(-c3ccncc3)c[nH]c2=O)C1` [Example 4, 5-((1-(2-Chloroacetyl)azetidin-3-yl)amino)-[3,4′-bipyridin]-6(1H)-one], for which the IC50 was at most 1000 nM.

For `C=CC(=O)N1CCC[C@@H](Nc2cc(-c3ccncc3)c[nH]c2=O)C1` [Example 2, (R)-5-((1-Acryloylpiperidin-3-yl)amino)-[3,4′-bipyridin]-6(1H)-one], the IC50 was over 1000 nM.

As for `CNc1cc(-c2c[nH]c(=O)c(NC3CN(C(=O)/C=C/Cc4ccccc4)C3)c2)ccn1` [Example 15, (E)-2′-(Methylamino)-5-((1-(4-phenylbut-2-enoyl)azetidin-3-yl)amino)-[3,4′-bipyridin]-6(1H)-one], the half-maximal inhibitory concentration (IC50) was over 1000 nM.

Take `C=CC(=O)N1CC(Nc2cc(-c3cncc(OC)n3)c[nH]c2=O)C1` [Example 8, 3-((1-acryloylazetidin-3-yl)amino)-5-(6-methoxypyrazin-2-yl) pyridin-2(1H)-one]: the IC50 is at most 1000 nM.

Turning to `C=CC(=O)N1CC(Nc2cc(-c3ccnc(C)c3)c[nH]c2=O)C1` [Example 7, 5-((1-acryloylazetidin-3-yl)amino)-2′-methyl-[3,4′-bipyridin]-6(1H)-one], the IC50 was at most 1000 nM.

For the origin of these results see patent US9145393B2, “Arylpyridinone ITK inhibitors for treating inflammation and cancer” (Confluence Life Sciences, Inc., priority 2014, dated 2015).
